Laboratory results: PubChem BioAssay AID248 (DTP/NCI, 2004)
Several values for one entry are separate records, joined by “and”; a condition that tells them apart may be missing. Equal entries are not always repeated. Toxic doses and inconclusive results are not listed. No stated cut-off is given here; in the data, active means T/C of 150% or more; inactive means T/C below 125%.

Test system: L1210 leukemia ip in BDF1 mice, survival T/C
Test: NCI In Vivo Anticancer Drug Screen. Data for tumor model L1210 Leukemia (intraperitoneal) in B6D2F1 (BDF1) mice
Conditions: endpoint: mean survival time, higher = longer survival
Summary of the method: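 Each compound was tested against a transplantable tumor grown in mice. The endpoint was survival, with treated animals benchmarked against vehicle controls as a simple ratio.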

[1] = dose: 100.0 mg/kg/injection, schedule: Q01DX009 (ip), vehicle: saline with Tween-80
[2] = dose: 100.0 mg/kg/injection, schedule: Q01DX009 (ip), vehicle: saline
[3] = dose: 200.0 mg/kg/injection, schedule: Q01DX009 (ip), vehicle: saline
[4] = dose: 400.0 mg/kg/injection, schedule: Q01DX009 (ip), vehicle: saline
[5] = dose: 100.0 mg/kg/injection, schedule: Q04DX003 (ip), vehicle: saline
[6] = dose: 200.0 mg/kg/injection, schedule: Q04DX003 (ip), vehicle: saline
[7] = dose: 100.0 mg/kg/injection, schedule: Q01DX009 (ip), vehicle: Klucel (hydroxypropylcellulose) (HPC)
[8] = dose: 200.0 mg/kg/injection, schedule: Q01DX009 (ip), vehicle: Klucel (hydroxypropylcellulose) (HPC)
[9] = dose: 400.0 mg/kg/injection, schedule: Q01DX009 (ip), vehicle: Klucel (hydroxypropylcellulose) (HPC)
[10] = dose: 100.0 mg/kg/injection, schedule: Q04DX003 (ip), vehicle: Klucel (hydroxypropylcellulose) (HPC)
[11] = dose: 200.0 mg/kg/injection, schedule: Q04DX003 (ip), vehicle: Klucel (hydroxypropylcellulose) (HPC)
[12] = dose: 400.0 mg/kg/injection, schedule: Q04DX003 (ip), vehicle: Klucel (hydroxypropylcellulose) (HPC)

Measured: T/C

OC(CI)C(O)C(O)C(O)CI (stereo unspecified)
inactive: dose: 50.0 mg/kg/injection, schedule: Q01DX009 (ip), vehicle: other 101 % of control | dose: 100.0 mg/kg/injection, schedule: Q01DX009 (ip), vehicle: other 101 % of control and 106 % of control | dose: 100.0 mg/kg/injection, schedule: Q## X024 (ip), vehicle: other 103 % of control | dose: 177.0 mg/kg/injection, schedule: Q01DX Z (ip), vehicle: methylcellulose (MC) 92 % of control | dose: 200.0 mg/kg/injection, schedule: Q01DX001 (ip), vehicle: other 103 % of control and 101 % of control | dose: 200.0 mg/kg/injection, schedule: Q01DX009 (ip), vehicle: other 95 % of control and 111 % of control | dose: 200.0 mg/kg/injection, schedule: Q## X003 (ip), vehicle: other 109 % of control | dose: 200.0 mg/kg/injection, schedule: Q## X024 (ip), vehicle: other 111 % of control | dose: 267.0 mg/kg/injection, schedule: Q01DX Z (ip), vehicle: methylcellulose (MC) 108 % of control | dose: 400.0 mg/kg/injection, schedule: Q01DX001 (ip), vehicle: other 97 % of control and 111 % of control | dose: 400.0 mg/kg/injection, schedule: Q01DX009 (ip), vehicle: other 101 % of control | dose: 400.0 mg/kg/injection, schedule: Q01DX Z (ip), vehicle: methylcellulose (MC) 93 % of control | dose: 400.0 mg/kg/injection, schedule: Q## X003 (ip), vehicle: other 109 % of control | dose: 400.0 mg/kg/injection, schedule: Q## X024 (ip), vehicle: other 108 % of control | dose: 600.0 mg/kg/injection, schedule: Q01DX Z (ip), vehicle: methylcellulose (MC) 98 % of control | dose: 800.0 mg/kg/injection, schedule: Q01DX001 (ip), vehicle: other 105 % of control and 101 % of control | dose: 800.0 mg/kg/injection, schedule: Q## X003 (ip), vehicle: other 109 % of control | dose: 800.0 mg/kg/injection, schedule: Q## X024 (ip), vehicle: other 124 % of control

CCc1c(N)nc(N)nc1Nc1ccc(Cl)c(Cl)c1
inactive: dose: 100.0 mg/kg/injection, schedule: Q01DX Z (ip), vehicle: methylcellulose (MC) 96 % of control

CC(=O)c1ccc(OC(=O)Nc2ccccc2F)cc1
inactive: dose: 25.0 mg/kg/injection, schedule: Q01DX009 (ip), vehicle: saline with Tween-80 112 % of control | dose: 50.0 mg/kg/injection, schedule: Q01DX009 (ip), vehicle: saline with Tween-80 111 % of control | [1] 96 % of control and 110 % of control

CCN(CC)C(=Nc1ccc(NC(=O)c2ccc(C(=O)Nc3ccc(N=C(c4ccccc4)N(CC)CC)cc3)cc2)cc1)c1ccccc1
inactive: dose: 15.0 mg/kg/injection, schedule: Q01DX Z (ip), vehicle: carboxymethylcellulose (CMC) 92 % of control | dose: 30.0 mg/kg/injection, schedule: Q01DX Z (ip), vehicle: carboxymethylcellulose (CMC) 93 % of control | dose: 60.0 mg/kg/injection, schedule: Q01DX Z (ip), vehicle: carboxymethylcellulose (CMC) 98 % of control | dose: 120.0 mg/kg/injection, schedule: Q01DX Z (ip), vehicle: carboxymethylcellulose (CMC) 114 % of control

O=[N+]([O-])c1ccc2[nH]c(=S)sc2c1
inactive: dose: 25.0 mg/kg/injection, schedule: Q01DX009 (ip), vehicle: Klucel (hydroxypropylcellulose) (HPC) 95 % of control | dose: 50.0 mg/kg/injection, schedule: Q01DX009 (ip), vehicle: Klucel (hydroxypropylcellulose) (HPC) 95 % of control

COc1cc(OC)c2cc1Cc1cc(c(OC)cc1OC)Cc1cc(c(OC)cc1OC)Cc1cc(c(OC)cc1OC)C2
inactive: [2] 94 % of control | [3] 86 % of control | [4] 86 % of control

COC(=N)c1ccc(O)c(C)c1
inactive: [5] 99 % of control | [6] 94 % of control | dose: 400.0 mg/kg/injection, schedule: Q04DX003 (ip), vehicle: saline 88 % of control

C[N+](C)(C)CC#N
inactive: [5] 95 % of control | [6] 95 % of control

NNc1nc2c(N)ncnc2n1C1OC(CO)C(O)C1O (stereo unspecified)
inactive: dose: 100.0 mg/kg/injection, schedule: Q01DX005 (ip), vehicle: saline 104 % of control | dose: 200.0 mg/kg/injection, schedule: Q01DX005 (ip), vehicle: saline 107 % of control

O=C1OC(c2ccccc2)(c2ccccn2)c2ccccc21 (stereo unspecified)
inactive: [1] 90 % of control | dose: 200.0 mg/kg/injection, schedule: Q01DX009 (ip), vehicle: saline with Tween-80 92 % of control | dose: 400.0 mg/kg/injection, schedule: Q01DX009 (ip), vehicle: saline with Tween-80 88 % of control

c1ccc2c(SCCC3CCCCC3)nnnc2c1
inactive: dose: 100.0 mg/kg/injection, schedule: Q04DX003 (ip), vehicle: acetone 89 % of control | dose: 200.0 mg/kg/injection, schedule: Q04DX003 (ip), vehicle: acetone 98 % of control | dose: 400.0 mg/kg/injection, schedule: Q04DX003 (ip), vehicle: acetone 93 % of control

OC1CCCCC1Cc1ccccc1 (stereo unspecified)
inactive: dose: 100.0 mg/kg/injection, schedule: Q04DX003 (ip), vehicle: gum acacia 102 % of control | dose: 200.0 mg/kg/injection, schedule: Q04DX003 (ip), vehicle: gum acacia 96 % of control | dose: 400.0 mg/kg/injection, schedule: Q04DX003 (ip), vehicle: gum acacia 98 % of control

NC(=O)NC(O)C(Cl)(Cl)Cl (stereo unspecified)
inactive: [7] 100 % of control | [8] 100 % of control | [9] 93 % of control

COC(=O)CCC(C)(C)[N+](=O)[O-]
inactive: [2] 113 % of control | [3] 104 % of control | [4] 102 % of control

Cc1ccc(NC(=O)c2ccc(Cl)cc2Cl)cc1Cl
inactive: [7] 96 % of control | [10] 104 % of control | [8] 91 % of control | [11] 97 % of control | [9] 94 % of control | [12] 95 % of control

Cc1cccc(NC(=O)Nc2ccc(F)cc2)n1
inactive: dose: 100.0 mg/kg/injection, schedule: Q01DX001 (ip), vehicle: Klucel (hydroxypropylcellulose) (HPC) 94 % of control | [7] 98 % of control | dose: 100.0 mg/kg/injection, schedule: Q04DX002 (ip), vehicle: Klucel (hydroxypropylcellulose) (HPC) 98 % of control and 103 % of control | [10] 97 % of control | dose: 200.0 mg/kg/injection, schedule: Q01DX001 (ip), vehicle: Klucel (hydroxypropylcellulose) (HPC) 96 % of control | [8] 95 % of control | dose: 200.0 mg/kg/injection, schedule: Q04DX002 (ip), vehicle: Klucel (hydroxypropylcellulose) (HPC) 100 % of control and 102 % of control | [11] 100 % of control | dose: 400.0 mg/kg/injection, schedule: Q01DX001 (ip), vehicle: Klucel (hydroxypropylcellulose) (HPC) 86 % of control | [9] 95 % of control | dose: 400.0 mg/kg/injection, schedule: Q04DX002 (ip), vehicle: Klucel (hydroxypropylcellulose) (HPC) 105 % of control and 107 % of control | [12] 107 % of control
